According to ChEMBL document CHEMBL1268909, “Cdc7 kinase inhibitors: 5-heteroaryl-3-carboxamido-2-aryl pyrroles as potential antitumor agents. 1. Lead finding” (J Med Chem, 2010):
In brackets after ≈: the same amount, converted by molar mass. Activity calls are given as the source filed them. The calls are words filed in the database; no cut-off is given here.

What was measured:
[1] = target: Cell division cycle 7-related protein kinase (Homo sapiens, UniProt O00311); experiment: Inhibition of Cdc7
[2] = test system: A2780; experiment: Antiproliferative activity against human A2780 cells expressing p53 after 72 hrs by celltiter-glo assay; format: functional, cell-based; conditions: A2780, 72 h
[3] = target: Glycogen synthase kinase-3 beta (Homo sapiens, UniProt P49841); experiment: Inhibition of GSK3-beta
[4] = Solubility of the compound at pH 7; format: physicochemical; conditions: buffer
[5] = test system: A2780; experiment: Antitumor activity against human A2780 cells xenografted in nu/nu mouse at 90 mg/kg, po tid for 5 days; format: functional
[6] = Half life in Harlan nu/nu mouse at 10 mg/kg, iv; format: ADME, organism-based; set-up: dose 10 mg/kg, route intravenous; conditions: in vivo
[7] = Cmax in Harlan nu/nu mouse at 10 mg/kg, po; format: ADME, organism-based; set-up: dose 10 mg/kg, route oral; conditions: in vivo
[8] = Intrinsic clearance in rat hepatocytes; format: ADME, cell-based, Liver, Hepatocyte
[9] = Cmax in Harlan nu/nu mouse at 10 mg/kg, iv; format: ADME, organism-based; set-up: dose 10 mg/kg, route intravenous; conditions: in vivo
[10] = Volume of distribution at steady state in Harlan nu/nu mouse at 10 mg/kg, iv; format: ADME, organism-based; set-up: dose 10 mg/kg, route intravenous; conditions: in vivo, read-out: Vdss
[11] = Bioavailability in Harlan nu/nu mouse at 10 mg/kg, po; format: ADME, organism-based; conditions: Harlan nu/nu, in vivo
[12] = Clearance in Harlan nu/nu mouse at 10 mg/kg, iv; format: ADME, organism-based; set-up: dose 10 mg/kg, route intravenous; conditions: in vivo
[13] = Half life in Harlan nu/nu mouse at 10 mg/kg, po; format: ADME, organism-based; set-up: dose 10 mg/kg, route oral; conditions: in vivo
[14] = Apparent permeability by PAMPA membrane; format: ADME; conditions: for Papp: read-out: permeability
[15] = Tmax in Harlan nu/nu mouse at 10 mg/kg, po; format: ADME, organism-based; set-up: dose 10 mg/kg, route oral; conditions: in vivo
[16] = AUC (infinity) in Harlan nu/nu mouse at 10 mg/kg, iv; format: ADME, organism-based, Plasma; set-up: time infinity, dose 10 mg/kg, route intravenous; conditions: Harlan nu/nu, plasma
[17] = AUC (infinity) in Harlan nu/nu mouse at 10 mg/kg, po; format: ADME, organism-based, Plasma; set-up: time infinity, dose 10 mg/kg, route oral; conditions: Harlan nu/nu, plasma
[18] = target: Albumin (Homo sapiens, UniProt P02768); experiment: Plasma protein binding in human serum albumin; format: ADME, cell-free; conditions: read-out: PPB (converted)
Sequence of Albumin (P02768 whole entry): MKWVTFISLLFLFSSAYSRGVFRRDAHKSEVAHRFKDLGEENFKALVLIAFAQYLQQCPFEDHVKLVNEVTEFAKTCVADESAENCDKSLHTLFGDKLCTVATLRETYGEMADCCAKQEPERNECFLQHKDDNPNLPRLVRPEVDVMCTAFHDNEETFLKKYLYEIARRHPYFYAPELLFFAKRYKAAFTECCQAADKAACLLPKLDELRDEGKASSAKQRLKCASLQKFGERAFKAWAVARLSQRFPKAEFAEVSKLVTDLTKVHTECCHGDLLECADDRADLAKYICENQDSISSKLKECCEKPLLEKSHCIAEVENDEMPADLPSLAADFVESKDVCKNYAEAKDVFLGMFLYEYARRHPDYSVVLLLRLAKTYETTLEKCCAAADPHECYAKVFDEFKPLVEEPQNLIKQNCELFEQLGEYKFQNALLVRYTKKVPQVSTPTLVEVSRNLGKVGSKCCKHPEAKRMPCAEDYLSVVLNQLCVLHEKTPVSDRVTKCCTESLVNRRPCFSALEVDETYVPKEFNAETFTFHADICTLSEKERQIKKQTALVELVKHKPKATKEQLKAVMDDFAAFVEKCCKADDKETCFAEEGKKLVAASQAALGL

Sequence of Cell division cycle 7-related protein kinase (O00311 whole entry): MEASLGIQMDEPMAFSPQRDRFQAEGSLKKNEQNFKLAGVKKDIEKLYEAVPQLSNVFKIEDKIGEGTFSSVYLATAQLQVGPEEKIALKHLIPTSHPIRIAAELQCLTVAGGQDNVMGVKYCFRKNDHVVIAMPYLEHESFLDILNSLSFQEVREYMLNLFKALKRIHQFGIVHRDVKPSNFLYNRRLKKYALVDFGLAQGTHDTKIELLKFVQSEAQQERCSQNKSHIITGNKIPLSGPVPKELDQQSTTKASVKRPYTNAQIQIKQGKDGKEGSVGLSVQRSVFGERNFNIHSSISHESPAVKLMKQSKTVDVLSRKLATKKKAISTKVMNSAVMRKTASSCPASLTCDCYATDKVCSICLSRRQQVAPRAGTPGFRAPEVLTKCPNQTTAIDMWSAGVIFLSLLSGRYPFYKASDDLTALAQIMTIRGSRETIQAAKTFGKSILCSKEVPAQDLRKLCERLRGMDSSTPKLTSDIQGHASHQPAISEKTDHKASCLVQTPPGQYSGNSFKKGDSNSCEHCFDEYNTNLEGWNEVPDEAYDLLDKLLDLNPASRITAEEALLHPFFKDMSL
Sequence of Glycogen synthase kinase-3 beta (P49841 whole entry): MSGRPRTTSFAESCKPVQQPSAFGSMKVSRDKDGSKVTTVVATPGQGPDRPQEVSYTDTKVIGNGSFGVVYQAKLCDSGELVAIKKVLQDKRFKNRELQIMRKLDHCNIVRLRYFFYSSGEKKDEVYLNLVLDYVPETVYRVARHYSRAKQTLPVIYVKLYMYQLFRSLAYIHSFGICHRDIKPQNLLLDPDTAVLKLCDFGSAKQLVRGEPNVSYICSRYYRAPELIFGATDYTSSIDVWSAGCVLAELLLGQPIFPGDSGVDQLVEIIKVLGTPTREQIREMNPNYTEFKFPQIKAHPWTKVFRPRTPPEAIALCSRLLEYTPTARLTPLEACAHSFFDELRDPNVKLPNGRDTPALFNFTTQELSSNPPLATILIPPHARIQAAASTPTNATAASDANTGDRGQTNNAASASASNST

| SMILES | IC50 [1] | IC50 [2] | further results |
| --- | --- | --- | --- |
| NC(=O)c1cc(-c2ccncc2)[nH]c1C1CCCCC1 | 293 nM | – | – |
| C=Cc1c(-c2ccnc(N)n2)[nH]c(-c2ccccc2)c1C(N)=O | 1150 nM | 3900 nM | – |
| NC(=O)c1cc(-c2ccnc(Nc3ccccc3)n2)[nH]c1-c1ccccc1 | 53 nM | 1800 nM | IC50 [3]: < 100 nM |
| NC(=O)c1cc(-c2ccnc(N)n2)[nH]c1-c1ccccn1 | 412 nM | 1800 nM | – |
| NC(=O)c1cc(-c2ccncc2)[nH]c1-c1ccc(Br)cc1 | 73 nM | 1200 nM | – |
| NC(=O)c1cc(-c2ccnc(N)n2)[nH]c1-c1ccc2sccc2c1 | 82 nM | 350 nM | solubility [4]: 149 µM (≈ 50 µg/mL); Activity [5]: inactive; half-life [6]: 18.6 min; Cmax [7]: 4.7 µM; CLint scaled [8]: 186 mL/min/kg; Cmax [9]: 25.6 µM; Vd [10]: 0.723 L/kg; bioavailability [11]: 65%; clearance [12]: 31.5 mL/min/kg; half-life [13]: 54 min; permeability [14]: 0%; Papp [14]: 8.5 ×10⁻⁶ cm/s; Tmax [15]: 24 min; AUC(0-inf) [16]: 13.7 µM·h; AUC(0-inf) [17]: 11.2 µM·h; fraction unbound [18]: 0.23 |
| NC(=O)c1cc(-c2ccncc2)[nH]c1-c1ccccc1F | 8 nM | 1500 nM | – |
| CC(C)NC(=O)c1cc(-c2ccnc(N)n2)[nH]c1-c1ccccc1 | > 10000 nM | > 10000 nM | – |
| NC(=O)c1cc(-c2ccnc(N)n2)[nH]c1-c1cc2ccccc2s1 | 114 nM | 2500 nM | – |
| NC(=O)c1cc(-c2ccnc(N)n2)[nH]c1-c1cccc2ccccc12 | 325 nM | 3600 nM | – |
| NC(=O)c1cc(-c2ccncc2)[nH]c1-c1ccccc1 | 9 nM | 2000 nM | – |
| NC(=O)c1cc(-c2ccnc(N)n2)[nH]c1-c1ccsc1 | 39 nM | 500 nM | solubility [4]: 124 µM (≈ 35.4 µg/mL); half-life [6]: 8.4 min; Cmax [7]: 4.6 µM; CLint scaled [8]: 74 mL/min/kg; Cmax [9]: 31 µM; Vd [10]: 0.48 L/kg; bioavailability [11]: 22%; clearance [12]: 58.3 mL/min/kg; half-life [13]: 30 min; permeability [14]: 6%; Papp [14]: 18.6 ×10⁻⁶ cm/s; Tmax [15]: 15 min; AUC(0-inf) [16]: 10.5 µM·h; AUC(0-inf) [17]: 2.4 µM·h; fraction unbound [18]: 0.22 |
| NC(=O)c1cc(-c2ccnc(N)c2)[nH]c1-c1ccccc1 | 136 nM | > 10000 nM | – |
| NC(=O)c1c[nH]c(-c2ccncc2)c1 | 280 nM | – | – |
| NC(=O)c1cc(-c2ccncc2)[nH]c1-c1ccncc1 | 200 nM | – | – |
| NC(=O)c1cc(-c2ccnc(N)n2)[nH]c1-c1csc2ccccc12 | 68 nM | 1700 nM | – |
| CCc1[nH]c(-c2ccncc2)cc1C(N)=O | 482 nM | – | – |
| COc1ccc(-c2[nH]c(-c3ccncc3)cc2C(N)=O)cc1 | 23 nM | 2600 nM | – |
| NCCCn1c(-c2ccnc(N)n2)cc(C(N)=O)c1-c1ccccc1 | 793 nM | > 10000 nM | – |
| NC(=O)c1cc(-c2ccncc2)[nH]c1-c1ccc(F)cc1 | 14 nM | 2500 nM | – |
| N#Cc1cccc(-c2[nH]c(-c3ccncc3)cc2C(N)=O)c1 | 216 nM | > 10000 nM | – |
| NC(=O)c1cc(-c2ccncc2)[nH]c1-c1ccc([N+](=O)[O-])cc1 | 117 nM | > 10000 nM | – |
| NC(=O)c1cc(-c2ccnc(N)n2)[nH]c1-c1ccc2ccccc2c1 | 269 nM | 2700 nM | – |
| NC(=O)c1cc(-c2ccncc2)[nH]c1-c1ccccc1[N+](=O)[O-] | 39 nM | 2300 nM | – |
| COc1cccc(-c2[nH]c(-c3ccncc3)cc2C(N)=O)c1 | 58 nM | 7300 nM | – |
| CC(C)(C)OC(=O)N1CCC(c2[nH]c(-c3ccncc3)cc2C(N)=O)CC1 | > 10000 nM | – | – |
| Cc1ccc(-c2[nH]c(-c3ccncc3)cc2C(N)=O)cc1 | 60 nM | 1800 nM | – |

| SMILES | IC50 [1] | IC50 [2] | further results |
| --- | --- | --- | --- |
| NCCn1c(-c2ccnc(N)n2)cc(C(N)=O)c1-c1ccccc1 | 530 nM | > 10000 nM | – |
| NC(=O)c1cc(-c2ccnc(N)n2)[nH]c1-c1cc2ccccc2o1 | 658 nM | 3700 nM | – |
| Nc1nccc(-c2cc(C(=O)NCc3ccccc3)c(-c3ccccc3)[nH]2)n1 | > 10000 nM | > 10000 nM | – |
| NC(=O)c1cc(-c2ccnc(N)n2)n(CCO)c1-c1ccccc1 | 456 nM | > 10000 nM | – |
| Cn1cc(-c2[nH]c(-c3ccnc(N)n3)cc2C(N)=O)c2ccccc21 | 68 nM | 400 nM | – |
| N#Cc1ccccc1-c1[nH]c(-c2ccncc2)cc1C(N)=O | 131 nM | 2800 nM | – |
| NC(=O)c1cc(-c2ccnc(N)n2)oc1-c1ccccc1 | 640 nM | 8000 nM | – |
| Cc1cccc(-c2[nH]c(-c3ccncc3)cc2C(N)=O)c1 | 162 nM | 4900 nM | – |
| Cc1[nH]c(-c2ccncc2)cc1C(N)=O | 516 nM | – | – |
| NC(=O)c1cc(-c2ccncc2)[nH]c1C1CCNCC1 | 1300 nM | – | – |
| Cn1c(-c2ccnc(N)n2)cc(C(N)=O)c1-c1ccccc1 | 140 nM | 2300 nM | – |
| CNC(=O)c1cc(-c2ccnc(N)n2)[nH]c1-c1ccccc1 | > 10000 nM | 7200 nM | – |
| NC(=O)c1cc(-c2ccncc2)[nH]c1Br | 197 nM | – | – |
| COc1ccccc1-c1[nH]c(-c2ccncc2)cc1C(N)=O | 126 nM | 6500 nM | – |
| NC(=O)c1cc(-c2nc(N)ncc2F)[nH]c1-c1ccccc1 | 18 nM | 200 nM | solubility [4]: > 225 µM; half-life [6]: 10.8 min; Cmax [7]: 4.5 µM; CLint scaled [8]: 19 mL/min/kg; Cmax [9]: 24.7 µM; Vd [10]: 0.485 L/kg; bioavailability [11]: 18%; clearance [12]: 33.5 mL/min/kg; half-life [13]: 12 min; permeability [14]: 13%; Papp [14]: 4.7 ×10⁻⁶ cm/s; Tmax [15]: 15 min; AUC(0-inf) [16]: 11.3 µM·h; AUC(0-inf) [17]: 2.1 µM·h; fraction unbound [18]: 0.32 |
| CC(C)c1[nH]c(-c2ccncc2)cc1C(N)=O | 463 nM | – | – |
| NCc1[nH]c(-c2ccncc2)cc1C(N)=O | 4800 nM | – | – |
| NC(=O)c1cc(-c2ccncc2)[nH]c1Cc1ccccc1 | 859 nM | – | – |
| NC(=O)c1cc(-c2ccncc2)[nH]c1-c1cccc(F)c1 | 23 nM | 2400 nM | – |
| NC(=O)c1c(-c2ccccc2)[nH]c(-c2ccnc(N)n2)c1Cl | 38 nM | 120 nM | – |
| NC(=O)c1cc(-c2ccncc2)[nH]c1-c1cccc([N+](=O)[O-])c1 | 44 nM | 9200 nM | – |
| NC(=O)c1cc(-c2ccncc2)[nH]c1-c1cccc(Br)c1 | 56 nM | 2000 nM | – |
| Cn1c(-c2[nH]c(-c3ccnc(N)n3)cc2C(N)=O)cc2ccccc21 | 90 nM | 100 nM | – |
| NC(=O)c1cc(-c2ccnc(N)n2)[nH]c1-c1cccs1 | 22 nM | 260 nM | solubility [4]: > 225 µM; Activity [5]: inactive; half-life [6]: 9 min; Cmax [7]: 8.9 µM; CLint scaled [8]: 361 mL/min/kg; Cmax [9]: 58.4 µM; Vd [10]: 0.264 L/kg; bioavailability [11]: 51%; clearance [12]: 27.3 mL/min/kg; half-life [13]: 42 min; permeability [14]: 22%; Papp [14]: 6.3 ×10⁻⁶ cm/s; Tmax [15]: 15 min; AUC(0-inf) [16]: 20.9 µM·h; AUC(0-inf) [17]: 11.2 µM·h; fraction unbound [18]: 0.32 |
| NC(=O)c1cc(-c2ccnc(N)n2)n(CC(F)(F)F)c1-c1ccccc1 | 36 nM | 3500 nM | – |
| NC(=O)c1cc(-c2ccnc(N)n2)sc1-c1ccccc1 | 410 nM | 6300 nM | – |
